Source: patent US10889563B2, “Deoxyuridine triphosphatase inhibitors” (University of Southern California, priority 2013, dated 2021)

What was measured:
[1] = test system: HCT116 cells; assay: Colony formation assay, HCT116; type: cell-based; conditions: HCT116, 0.5 to 5 μmol/L (Example 23)
[2] = test system: MCF-7 breast cancer cell line; assay: Colony formation assay, MCF-7; type: cell-based; conditions: MCF-7, 0.5 μmol/L
Method: (§1) Colony forming assay showing the ability of colon (SW620, HCT 116), non-small cell lung (A549, H460, H1299 and H358) and breast (MCF7) cancer cells to survive and proliferate following transient 24 hour exposure to single agent PCI 1013, FUdR and combinations. Specifically, cells were seeded at densities between 50 and 100 cells/well in 24-well plates. Twenty-four hours later, cells were treated with increasing concentrations of PCI 10213, a fixed dose of FUdR and combinations of these. After 24 hours, drug was removed, cells were rinsed and allowed to outgrow for 10-14 days. At the conclusion of the outgrowth, cells were fixed in 60% ice cold methanol and stained with 0.1% crystal violet, scanned and counted. Data is presented as percentage of untreated controls (mean±SD). Fraction affected and combination indexes were calculated according to the method of Chou and Talalay where <1 is indicative of a synergistic drug interaction.
(§2) Subsequently, increasing concentrations of PCI 10213 were combined with a fixed dose of FUdR to evaluate the combined drug effect. In NSCLC cells, concentrations of PCI 10213 ranging from 3.1 μmol/L to 25 μmol/L were combined with 1 μmol/L FUdR. […] The effectiveness of this combination was pronounced in A549 and H460 cells where 12.5 and 25 μmol/L PCI 10213 combined with 1 μmol/L FUdR reduced cell viability by >95% compared to vehicle-treated controls.

[3] = test system: HCT116 cells; assay: Colony formation assay, HCT116; type: cell-based
Method: as §1, with “interaction. […]” for “interaction.”
(§3) In colorectal cancer cells, concentrations of PCI 10213 ranging from 3.1 μmol/L to 50 μmol/L were combined with 0.5 μmol/L FUdR in HCT116 cells and 1 μmol/L FUdR in SW620 cells.

[4] = test system: SW620 cells; assay: Colony formation assay, SW620; type: cell-based; conditions: SW620; PCI 10213 3.1 to 50 μmol/L or FUdR 1 μmol/L alone
Method: as §1, §3

[5] = test system: NSCLC cells (H1299, A549, H358 and H460); assay: Colony formation assay, NSCLC cells; type: cell-based; conditions: FUdR printed as One mol/L, vs vehicle-treated controls
Method: as §1, §2

[6] = test system: HCT-8 colorectal cell line model; assay: Colony formation assay, HCT-8; type: cell-based; conditions: HCT-8, 1 μmol/L
Method: as §1
Colony forming assays were subsequently performed to evaluate the effectiveness of additional PCI compounds alone and in combination with FUdR at reducing cancer cell viability in the HCT-8 colorectal cell line model. […] Subsequently, increasing concentrations of PCI compounds were combined with a fixed dose of 1 μmol/L FUdR to evaluate the combined drug effect.

[7] = test system: colorectal (HCT116), breast (MCF-7) and non-small cell lung (H1299, A549, H358 and H460) cell line models; assay: Colony formation assay, all cell lines evaluated; type: cell-based
Method: as §1, §2

[8] = test system: H460 cells; assay: Colony formation assay, H460; type: cell-based; conditions: H460, 25 and 50 μmol/L single agent
Method: as §1, §2

[9] = test system: HCT116 cells
[10] = test system: H1299 cells; assay: MTS growth inhibition assay, H1299; conditions: H1299, 72 hours, 100 μmol/L single agent
Method: (§4) The Cell Titer^96 AQueous MTS assay (Promega) was carried out according to the manufacturers guidelines. […] The combination effect was determined by the combination index (CI) method utilizing Calcusyn software (Biosoft, Ferguson, Mo.). Fraction affected (FA) was calculated from the percent growth inhibition: FA=(100−% growth inhibition)/100. CI values <1, synergism; 1-1.2, additive and >1.2, antagonism.
(§5) The NSCLC cell lines A549 and H1299 were exposed to increasing concentrations of each agent for 72 hours and growth inhibition was directly compared to vehicle-treated controls.

[11] = test system: A549 cells; assay: Colony formation assay, A549; type: cell-based; conditions: A549, 25 and 50 μmol/L single agent
Method: as §1, §2

[12] = test system: HCT116 cells; assay: cells; conditions: Homo sapiens, HCT-116, read-out: growth inhibition as a single agent
[13] = biological target: T1, Recombinant human deoxyuridine nucleotidohydrolase (dUTPase) (Homo sapiens, UniProt P33316); assay: Fluorescence-based dUTPase inhibition assay (Example 19; 5 ng dUTPase, 8 min at 37° C.)
T1 sequence (P33316 1-164 isoform P33316-2): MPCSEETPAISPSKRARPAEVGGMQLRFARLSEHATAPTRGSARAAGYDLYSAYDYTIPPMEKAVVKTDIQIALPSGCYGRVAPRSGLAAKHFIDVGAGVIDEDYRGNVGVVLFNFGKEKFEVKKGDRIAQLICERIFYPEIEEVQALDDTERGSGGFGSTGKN
Text: All drugs stocks were aliquoted and diluted as appropriate prior to use. The oligonucelotide primer, templates and fluorophore- and quencher-labeled detection probes are synthesized by Integrated DNA Technologies (Coralville, Iowa), subjected to polyacrylamide gel electrophoresis purification and reconstituted in Omnipur sterile nuclease-free water (EMD Chemicals USA, Gibbstown N.J.) at a stock concentration of 100 μmol/L. The two non-emissive (dark) quenching molecules incorporated into the detection probes include the Iowa black fluorescein quencher (IBFQ; absorption max 531 nm) and ZEN (non-abbreviation; absorption max 532 nm). The fluorescent label utilized was 6-FAM (5′-carboxyfluorescein; excitation max.=494 nm, emission max.=520 nm). Probes were further diluted to a working stock of 10 μmol/L and aliquoted to avoid repeated freeze/thaw cycles. AmpliTaq Gold DNA Polymerase, GeneAmp 10×PCR Buffer 2, MgCl2 and MicroAmp Optical 96-well Reaction Plates were purchased from Applied Biosystems (Carlsbad, Calif.). dNTPs were purchased individually at stock concentrations of 100 mmol/L from New England Biolabs at HPLC-certified >99% purity (Ipswich, Mass.).
Reaction mixtures contained primer, probe and template at an equimolar final concentration of 0.4 μmol/L. Magnesium chloride (MgCl2) was included at a final concentration of 2 mmol/L. Non-limiting dNTPs were included in the reaction mix in excess at a final concentration of 100 μmol/L (dUTP/dTTP was excluded). AmpliTaq Gold DNA polymerase was added at 0.875 U/reaction, 2.5 μl of 10×PCR buffer 2 added and nuclease-free ddH2O added to a final reaction volume of 25 μl. For dUTP inhibition analysis, the volume of ddH2O was further modified to accommodate an additional 1 μl of dUTPase (10 ng/μl) and 1 μl of inhibitor or DMSO control. Thermal profiling and fluorescence detection was performed using the ‘isothermal’ program on board an Applied Biosystems 7500 Real-Time PCR System. For analysis of dNTPs, the thermal profile consisted of an 8 min 37° C. step followed by a 10 min 95° C. step to ‘hot-start’ the Taq polymerase and a primer extension time of up to 30 min at 60° C. depending on the application. Raw fluorescence spectra for 6-FAM was measured using filter A at specified time intervals to follow assay progression using Sequence Detection Software (SDS Version 1.4, Applied Biosystems) and exported and analyzed in Microsoft Excel (Microsoft, Redmond Wash.) and Prism (GraphPad Software, La Jolla Calif.). In all cases, fluorescence values for blank reactions (limiting dNTP omitted) were subtracted to give normalized fluorescence units (NFU) to account for background fluorescence.
The assay employs a DNA polymerase-based approach utilizing an oligonucleotide template with 3 distinct regions: a 3′ primer binding region, a mid-template dUTP/thymidine triphosphate (TTP) detection region and a 5′ 6-Flavin adenine mononucleotide (FAM)-labeled probe binding region that incorporates a black hole quenching moiety.
reaction, the probe and primer hybridize to the oligonucleotide template to form the template:primer:probe complex. When Taq polymerase binds to the primer in the TPP complex and dUTP is present, successful extension of the nascent strand occurs and the inherent 5′ to 3′ exonuclease activity of Taq polymerase cleaves and displaces the 6-FAM-labeled probe in a 5′ to 3′ direction, releasing the 6-FAM fluorophore from its proximity to the three quenchers.

[14] = test system: SW620 cells; assay: MTS growth inhibition assay, SW620
Method: as §4
HCT116 and SW620 cells were exposed to increasing concentrations of each agent for 72 hours and growth inhibition was directly compared to vehicle-treated controls.

[15] = test system: A549 cells; assay: MTS growth inhibition assay, A549; conditions: A549, 72 hours
Method: as §4, §5

With `O=c1[nH]c(=O)n([C@H]2C[C@H](O)[C@@H](CO)O2)cc1F` [FUdR, fluorodeoxyuridine, reference compound] the “colonies formed, FUdR alone” value [1] was “dose-dependent decreases in colonies formed”, the “number of colonies formed, FUdR alone” value [2] was “no significant impact on the number of colonies formed” and the “number of colonies formed, FUdR alone” value ([3]; HCT116, 0.5 μmol/L, vs vehicle-treated controls (Example 23)) was “no significant effect on number of colonies formed”. For the same molecule, the “number of colonies formed, single agent” value ([3]; HCT116, PCI 10213 3.1 to 50 μmol/L or FUdR 0.5 μmol/L alone) was “neither PCI 10213 or the fixed dose of FUdR single agent had any significant effect on the number of colonies formed”, the “number of colonies formed, single agent” value [4] was “neither PCI 10213 or the fixed dose of FUdR single agent had any significant effect on the number of colonies formed” and the “number of colonies formed, FUdR alone” value [5] was “no significant effect on number of colonies formed”. For the same molecule, the “colonies formed, FUdR alone” value [6] was “no substantial effect on colonies formed” and the “colonies formed, FUdR alone” value ([7]; all cell lines evaluated, 0.5 to 2.5 μmol/L) was “dose-dependent decreases in colonies formed”.

With `C[C@@H](NS(=O)(=O)CC/C=C/Cn1ccc(=O)[nH]c1=O)c1cccc(OCC2CC2)c1` [PCI 10216, reference compound] the “number of colonies formed, compound alone” value (from here on “number … compound alone”) ([3]; HCT116, 25 and 50 μmol/L single agent) was “some reduction in the number of colonies formed”, the “number … compound alone” value [8] was “some reduction in the number of colonies formed” and the “decrease in growth / reduction in proliferation” value ([9]; HCT116, 72 hours, 100 μmol/L single agent) was 67%. For the same molecule, the “lowest concentration with detectable decrease in cell proliferation” value ([9]; HCT116, 72 hours, single agent) was 6.25 µmol/L, the “combined effect with 5-FU on growth inhibition” value ([9]; HCT116, fixed 25 μmol/L compound plus increasing 5-FU, up to 25 μmol/L 5-FU) was “additive and synergistic increases in growth inhibition” and the “decrease in cell proliferation” value [10] was 30%. For the same molecule, the “combined drug effect with fixed doses of FUdR” value ([7]; all cell lines examined (Example 22)) was “strong synergy”, the “number … compound alone” value [11] was “some reduction in the number of colonies formed” and the inhibition at 25 µM [12] was 44%. For the same molecule, the IC50 [13] was 0.8 µM, the “% Inhibition” value ([13]; 1.3 umol/L compound) was 60.4% and the inhibition at 1.3 µM ([13]; 1.3 umol/L compound) was 60%. For the same molecule, the inhibition at 2.6 µM ([13]; 2.6 umol/L compound) was 76.6%, the inhibition at 5.2 µM ([13]; 5.2 umol/L compound) was 84.6% and the inhibition at 10.4 µM ([13]; 10.4 umol/L compound) was 95.9%. The inhibition at 20.8 µM ([13]; 20.8 umol/L compound) was 101%, the inhibition at 41.7 µM ([13]; 41.7 umol/L compound) was 97.2% and the “% Inhibition” value ([13]; 83.3 umol/L compound) was 95.4%. The inhibition at 83.3 µM ([13]; 83.3 umol/L compound) was 95%, the “growth inhibition as a single agent” value ([14]; SW620, 25 μmol/L single agent) was 30% and the “single agent activity / decrease in proliferation” value ([14]; SW620, 72 hours, 100 μmol/L single agent) was 70%. The “combined effect with 5-FU on growth inhibition” value ([14]; SW620, fixed 25 μmol/L compound plus increasing 5-FU, up to 25 μmol/L 5-FU) was “additive and synergistic increases in growth inhibition”, the reduction in proliferation ([15]; 75 μmol/L single agent) was 30% and the “decrease in growth / reduction in proliferation” value ([15]; 100 μmol/L single agent) was 55%.
